This is an account of results in ChEMBL document CHEMBL1909046, “DrugMatrix in vitro pharmacology data”.

In general, IC50 refers to the concentration needed to halve the response being measured. In general, Ki refers to a measure of affinity in units of concentration, obtained from inhibition or displacement.

One data set has as its target T1, Estrogen receptor (Homo sapiens, UniProt P03372).
T1 sequence (P03372 whole entry): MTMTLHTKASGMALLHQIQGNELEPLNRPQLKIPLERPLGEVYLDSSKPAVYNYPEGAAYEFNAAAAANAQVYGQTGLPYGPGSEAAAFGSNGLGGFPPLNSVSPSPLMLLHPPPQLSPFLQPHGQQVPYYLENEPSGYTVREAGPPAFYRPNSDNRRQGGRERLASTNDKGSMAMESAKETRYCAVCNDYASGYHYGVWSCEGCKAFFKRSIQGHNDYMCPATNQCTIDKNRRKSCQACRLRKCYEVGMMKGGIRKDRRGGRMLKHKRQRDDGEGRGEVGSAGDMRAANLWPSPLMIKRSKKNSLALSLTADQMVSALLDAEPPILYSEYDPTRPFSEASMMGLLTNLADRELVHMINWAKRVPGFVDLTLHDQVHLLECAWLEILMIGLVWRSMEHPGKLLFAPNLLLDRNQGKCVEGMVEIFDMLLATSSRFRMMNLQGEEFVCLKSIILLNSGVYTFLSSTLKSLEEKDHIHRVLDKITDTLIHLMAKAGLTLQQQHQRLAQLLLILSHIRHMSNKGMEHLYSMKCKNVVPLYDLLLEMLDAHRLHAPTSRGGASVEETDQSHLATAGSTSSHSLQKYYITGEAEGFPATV
The note with it: sf9.

Data set [1] has as its target Sodium-dependent noradrenaline transporter (Homo sapiens, UniProt P23975). Briefly: DRUGMATRIX: Norepinephrine Transporter radioligand binding (ligand: [125I] RTI-55). Type of data set: cell membranes, MDCK, Membrane. The note with it: Not Active = under 50% inhibition at 10 µM.
A further data set has as its target D(3) dopamine receptor (Homo sapiens, UniProt P35462). The experiment in a line: DRUGMATRIX: Dopamine D3 radioligand binding (ligand: [3H] Spiperone). The class given is cell membranes, CHO, Membrane.
The target in the next data set is Estrogen receptor beta (Homo sapiens, UniProt Q92731). The note with it: sf9. Further: in other assays of this panel Not Active means under 50% inhibition at 10 µM.
Data set [2] deals with Kappa-type opioid receptor (Homo sapiens, UniProt P41145). The experiment in a line: DRUGMATRIX: Opiate kappa (OP2, KOP) radioligand binding (ligand: [3H] Diprenorphine). The class given is cell membranes, HEK293, Membrane. The note with it: hek293; Not Active = under 50% inhibition at 10 µM.
The target in the next data set is T2, Androgen receptor (Rattus norvegicus, UniProt P15207). Further: in other assays of this panel Not Active means under 50% inhibition at 10 µM.
T2 sequence (P15207 whole entry): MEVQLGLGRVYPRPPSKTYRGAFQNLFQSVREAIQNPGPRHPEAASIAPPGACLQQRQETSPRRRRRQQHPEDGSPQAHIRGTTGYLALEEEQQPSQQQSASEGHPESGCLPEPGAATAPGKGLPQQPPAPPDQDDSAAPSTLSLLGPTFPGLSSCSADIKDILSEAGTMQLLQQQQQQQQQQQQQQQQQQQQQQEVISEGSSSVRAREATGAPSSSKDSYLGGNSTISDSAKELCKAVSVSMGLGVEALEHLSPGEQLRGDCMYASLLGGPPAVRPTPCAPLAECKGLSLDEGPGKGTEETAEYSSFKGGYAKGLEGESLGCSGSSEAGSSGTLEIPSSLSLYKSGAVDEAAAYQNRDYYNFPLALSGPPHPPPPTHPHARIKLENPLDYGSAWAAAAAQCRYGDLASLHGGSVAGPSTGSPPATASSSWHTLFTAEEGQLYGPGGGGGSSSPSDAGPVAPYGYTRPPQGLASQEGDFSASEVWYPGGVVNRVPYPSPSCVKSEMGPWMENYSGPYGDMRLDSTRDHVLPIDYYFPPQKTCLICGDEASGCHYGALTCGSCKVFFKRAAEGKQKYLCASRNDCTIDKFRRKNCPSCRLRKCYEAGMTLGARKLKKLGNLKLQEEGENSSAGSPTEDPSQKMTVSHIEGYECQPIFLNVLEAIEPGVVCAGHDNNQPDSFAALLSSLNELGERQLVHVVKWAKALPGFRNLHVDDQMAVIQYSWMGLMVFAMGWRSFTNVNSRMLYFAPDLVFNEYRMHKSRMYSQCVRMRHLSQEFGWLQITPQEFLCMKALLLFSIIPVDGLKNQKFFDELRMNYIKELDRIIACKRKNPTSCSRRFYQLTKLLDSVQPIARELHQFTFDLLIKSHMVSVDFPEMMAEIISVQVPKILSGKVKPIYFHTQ

Data set [3] addresses T3, Cytochrome P450 2C9 (Homo sapiens, UniProt P11712). The note with it: bti-tn-5b1-4.
For data set [4], the target named is T3, Cytochrome P450 2C9. Further: in other assays of this panel Not Active means under 50% inhibition at 10 µM.

Chain of Estrogen receptor beta (Q92731 whole entry): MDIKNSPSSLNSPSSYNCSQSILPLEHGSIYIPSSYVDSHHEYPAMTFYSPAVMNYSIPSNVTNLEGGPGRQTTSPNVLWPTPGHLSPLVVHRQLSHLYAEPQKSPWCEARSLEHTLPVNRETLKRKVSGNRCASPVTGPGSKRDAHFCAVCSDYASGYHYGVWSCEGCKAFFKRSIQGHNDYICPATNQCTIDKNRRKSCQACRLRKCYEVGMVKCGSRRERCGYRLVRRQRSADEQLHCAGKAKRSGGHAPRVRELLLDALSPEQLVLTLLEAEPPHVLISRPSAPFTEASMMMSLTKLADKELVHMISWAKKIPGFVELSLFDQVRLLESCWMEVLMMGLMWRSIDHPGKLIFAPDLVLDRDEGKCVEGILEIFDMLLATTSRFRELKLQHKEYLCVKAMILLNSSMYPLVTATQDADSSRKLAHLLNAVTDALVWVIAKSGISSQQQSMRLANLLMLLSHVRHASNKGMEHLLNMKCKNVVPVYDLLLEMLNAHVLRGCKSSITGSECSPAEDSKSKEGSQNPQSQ
T3 sequence (P11712 whole entry): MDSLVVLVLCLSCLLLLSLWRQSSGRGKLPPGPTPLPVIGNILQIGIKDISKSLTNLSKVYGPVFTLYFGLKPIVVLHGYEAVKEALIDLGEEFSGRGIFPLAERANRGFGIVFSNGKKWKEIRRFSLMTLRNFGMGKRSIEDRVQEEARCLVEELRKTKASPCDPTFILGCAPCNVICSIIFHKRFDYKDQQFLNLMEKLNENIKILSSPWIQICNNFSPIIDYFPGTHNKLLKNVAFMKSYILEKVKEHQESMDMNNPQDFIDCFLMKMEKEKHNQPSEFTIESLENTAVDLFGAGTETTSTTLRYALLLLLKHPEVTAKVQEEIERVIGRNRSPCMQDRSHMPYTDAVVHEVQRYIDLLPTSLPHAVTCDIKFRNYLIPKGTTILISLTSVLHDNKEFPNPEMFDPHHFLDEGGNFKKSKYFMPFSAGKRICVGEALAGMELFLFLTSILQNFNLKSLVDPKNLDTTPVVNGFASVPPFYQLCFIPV
Chain of Sodium-dependent noradrenaline transporter (P23975 whole entry): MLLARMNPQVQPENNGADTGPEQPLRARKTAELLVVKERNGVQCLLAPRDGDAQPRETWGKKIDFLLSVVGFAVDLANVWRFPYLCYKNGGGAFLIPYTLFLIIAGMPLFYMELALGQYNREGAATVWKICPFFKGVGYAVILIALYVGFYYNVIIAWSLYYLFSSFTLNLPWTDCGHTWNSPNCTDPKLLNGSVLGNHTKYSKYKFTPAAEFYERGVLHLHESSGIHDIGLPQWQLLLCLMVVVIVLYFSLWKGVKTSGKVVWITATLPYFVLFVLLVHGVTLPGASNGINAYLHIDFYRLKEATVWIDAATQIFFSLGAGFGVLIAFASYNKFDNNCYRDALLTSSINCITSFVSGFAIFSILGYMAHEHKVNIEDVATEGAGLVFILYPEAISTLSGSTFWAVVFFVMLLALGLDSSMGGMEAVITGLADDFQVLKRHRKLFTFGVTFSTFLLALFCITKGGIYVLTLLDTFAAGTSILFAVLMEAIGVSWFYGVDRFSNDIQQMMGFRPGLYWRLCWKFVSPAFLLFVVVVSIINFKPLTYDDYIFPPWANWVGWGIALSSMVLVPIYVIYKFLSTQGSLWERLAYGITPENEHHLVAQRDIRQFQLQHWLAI
Chain of Kappa-type opioid receptor (P41145 whole entry): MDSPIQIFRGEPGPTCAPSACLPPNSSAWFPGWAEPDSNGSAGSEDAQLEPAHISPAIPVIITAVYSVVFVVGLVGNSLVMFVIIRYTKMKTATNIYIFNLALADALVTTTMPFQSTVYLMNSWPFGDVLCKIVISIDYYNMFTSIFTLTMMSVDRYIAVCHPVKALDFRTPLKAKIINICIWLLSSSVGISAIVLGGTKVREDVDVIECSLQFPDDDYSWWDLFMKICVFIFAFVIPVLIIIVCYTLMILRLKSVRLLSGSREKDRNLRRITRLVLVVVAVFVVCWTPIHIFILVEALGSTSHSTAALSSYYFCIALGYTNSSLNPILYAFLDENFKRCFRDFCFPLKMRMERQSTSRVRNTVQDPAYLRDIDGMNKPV
Chain of D(3) dopamine receptor (P35462 whole entry): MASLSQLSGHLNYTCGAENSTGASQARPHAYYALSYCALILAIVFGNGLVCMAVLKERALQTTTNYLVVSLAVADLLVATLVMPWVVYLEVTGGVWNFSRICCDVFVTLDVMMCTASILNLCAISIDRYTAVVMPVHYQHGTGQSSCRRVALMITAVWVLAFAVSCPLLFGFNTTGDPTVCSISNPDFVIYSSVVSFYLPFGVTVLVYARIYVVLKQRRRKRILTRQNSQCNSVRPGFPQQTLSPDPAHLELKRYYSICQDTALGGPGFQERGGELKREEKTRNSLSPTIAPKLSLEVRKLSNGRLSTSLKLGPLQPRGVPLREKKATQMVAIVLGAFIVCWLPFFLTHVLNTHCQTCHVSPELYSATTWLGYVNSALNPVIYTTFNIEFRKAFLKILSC

On to `CC[C@H](C)C(=O)O[C@H]1CCC=C2C=C[C@H](C)[C@H](CC[C@@H]3C[C@@H](O)CC(=O)O3)[C@H]21` [MEVASTATIN], for which the IC50 entry (at Estrogen receptor; in data set [1] (mdck); on D(3) dopamine receptor (cho); against Estrogen receptor beta; in data set [2]; on Androgen receptor) was “Not Active” throughout. The IC50 entry at Cytochrome P450 2C9 [3] was “Not Active”. Besides, the Ki result at Cytochrome P450 2C9 [3] was “Not Active”.
In the case of `O=C(OC[C@H]1O[C@@H](OC(=O)c2cc(O)c(O)c(OC(=O)c3cc(O)c(O)c(O)c3)c2)[C@H](OC(=O)c2cc(O)c(O)c(OC(=O)c3cc(O)c(O)c(O)c3)c2)[C@@H](OC(=O)c2cc(O)c(O)c(OC(=O)c3cc(O)c(O)c(O)c3)c2)[C@@H]1OC(=O)c1cc(O)c(O)c(OC(=O)c2cc(O)c(O)c(O)c2)c1)c1cc(O)c(O)c(OC(=O)c2cc(O)c(O)c(O)c2)c1` [TANNIC ACID], the IC50 entry was “Not Active” in data set [1] (mdck), “Not Active” at D(3) dopamine receptor (cho), 4.61 µM against Cytochrome P450 2C9 [4] and “Not Active” in data set [2].
Take `CCOC(=O)C1=C(C)NC(C)=C(C(=O)OCC)C1c1ccccc1/C=C/C(=O)OC(C)(C)C` [LACIDIPINE]: the 50% inhibitory concentration (IC50) entry at Estrogen receptor was “Not Active”; in data set [1] (read-out: IC50) it was 5.73 µM; at D(3) dopamine receptor (read-out: IC50), 6.17 µM; on Estrogen receptor beta it was “Not Active”; at Cytochrome P450 2C9 [4], 2 µM; in data set [2] it was “Not Active”. Also, the Ki was 5.69 µM in data set [1] (read-out: Ki) and 2.1 µM on D(3) dopamine receptor (read-out: Ki).
Turning to `CCOc1cc(N)c(Cl)cc1C(=O)NCC1CN(Cc2ccc(F)cc2)CCO1` (stereo unspecified) [MOSAPRIDE], the IC50 result was “Not Active” at Estrogen receptor; “Not Active” in data set [1] (mdck); “Not Active” on D(3) dopamine receptor (cho); “Not Active” at Estrogen receptor beta; 1 µM on Cytochrome P450 2C9 [4]; “Not Active” in data set [2].
